Ki data for 28 compounds are collected here from patent publication US11147812B2, “Tyrosine analogues derivatives as Rho-kinase inhibitors” (Chiesi Farmaceutici S.p.A., priority 2017, dated 2021).

For one assay, the target named is Rho kinase 1 (ROCK1) (Homo sapiens, UniProt Q13464). As to the kind of experiment: In vitro Rho kinase inhibitory activity assay (ADP-Glo), ROCK1. In kind it is biochemical. As to conditions: 10 μM ATP, 25° C., Ki by Cheng-Prusoff. The procedure:
(§1) The effectiveness of compounds of the present invention to inhibit Rho kinase activity can be determined in a 10 μl assay containing 40 mM Tris pH7.5, 20 mM MgCl2 0.1 mg/ml BSA, 50 μM DTT and 2.5 μM peptide substrate (Myelin Basic Protein) using an ADP-Glo kit (Promega). Compounds were dissolved in DMSO such that the final concentration of DMSO was 1% in the assay. All reactions/incubations are performed at 25° C. Compound (2 ul) and either Rho kinase 1 or 2 (4 μl) were mixed and incubated for 30 mins. Reactions were initiated by addition of ATP (4 μl) such that the final concentration of ATP in the assay was 10 μM. After a 1 hour incubation 10 μl of ADP-Glo Reagent was added and after a further 45 minute incubation 20 ul of Kinase Detection Buffer was added and the mixture incubated for a further 30 minutes. The luminescent signal was measured on a luminometer. […] Compounds were tested in dose-response format and the inhibition of kinase activity was calculated at each concentration of compound. To determine the IC50 (concentration of compound required to inhibit 50% of the enzyme activity) data were fit to a plot of % inhibition vs Log10 compound concentration using a sigmoidal fit with a variable slope and fixing the maximum to 100% and the minimum to 0%. To determine the Ki values the Cheng-Prusoff equation was utilized (Ki=IC50/(1+[S]/Km)
In general terms: In ADP-Glo the light output rises with the ADP produced.

A further assay concerns the target Rho kinase 2 (ROCK2) (Homo sapiens, UniProt O75116). As to the kind of experiment: In vitro Rho kinase inhibitory activity assay (ADP-Glo), ROCK2. The format is biochemical. The note with it: 10 μM ATP, 25° C., Ki by Cheng-Prusoff. The procedure: as §1

A value given as a limit tells only on which side of the number the result lay.

Chain of Rho kinase 2 (ROCK2) (O75116 whole entry): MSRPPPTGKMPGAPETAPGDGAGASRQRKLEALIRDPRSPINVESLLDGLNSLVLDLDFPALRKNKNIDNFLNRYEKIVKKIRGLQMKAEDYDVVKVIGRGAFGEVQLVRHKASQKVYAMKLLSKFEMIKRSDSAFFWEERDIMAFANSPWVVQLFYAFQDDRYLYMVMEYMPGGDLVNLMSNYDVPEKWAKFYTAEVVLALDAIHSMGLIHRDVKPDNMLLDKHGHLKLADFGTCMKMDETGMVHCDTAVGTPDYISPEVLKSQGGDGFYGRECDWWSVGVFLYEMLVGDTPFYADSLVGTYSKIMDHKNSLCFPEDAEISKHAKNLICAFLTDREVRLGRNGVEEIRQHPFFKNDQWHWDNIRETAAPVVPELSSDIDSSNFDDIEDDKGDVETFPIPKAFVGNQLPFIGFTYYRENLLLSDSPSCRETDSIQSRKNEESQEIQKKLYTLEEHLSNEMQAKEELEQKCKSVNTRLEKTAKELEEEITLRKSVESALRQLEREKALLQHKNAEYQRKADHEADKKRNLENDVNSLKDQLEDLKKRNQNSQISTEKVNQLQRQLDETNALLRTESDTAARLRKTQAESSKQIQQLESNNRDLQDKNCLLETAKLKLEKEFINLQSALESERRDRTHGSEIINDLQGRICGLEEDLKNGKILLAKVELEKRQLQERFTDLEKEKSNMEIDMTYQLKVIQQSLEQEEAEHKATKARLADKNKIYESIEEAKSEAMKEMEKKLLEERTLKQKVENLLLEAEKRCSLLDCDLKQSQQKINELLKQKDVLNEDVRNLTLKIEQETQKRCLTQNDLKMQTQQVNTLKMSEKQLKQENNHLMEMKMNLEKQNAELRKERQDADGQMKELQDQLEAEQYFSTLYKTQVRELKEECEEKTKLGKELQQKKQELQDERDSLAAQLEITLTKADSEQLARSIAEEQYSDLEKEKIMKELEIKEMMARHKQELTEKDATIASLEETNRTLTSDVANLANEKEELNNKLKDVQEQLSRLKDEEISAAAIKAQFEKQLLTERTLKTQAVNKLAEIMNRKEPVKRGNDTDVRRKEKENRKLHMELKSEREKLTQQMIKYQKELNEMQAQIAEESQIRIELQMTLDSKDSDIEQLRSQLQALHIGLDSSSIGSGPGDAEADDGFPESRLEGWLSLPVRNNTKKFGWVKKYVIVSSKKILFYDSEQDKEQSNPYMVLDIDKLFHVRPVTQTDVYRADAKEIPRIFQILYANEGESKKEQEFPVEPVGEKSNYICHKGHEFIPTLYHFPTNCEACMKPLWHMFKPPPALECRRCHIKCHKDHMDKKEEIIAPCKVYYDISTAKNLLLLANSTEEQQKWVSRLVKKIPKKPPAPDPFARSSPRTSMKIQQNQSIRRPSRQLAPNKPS
Chain of Rho kinase 1 (ROCK1) (Q13464 whole entry): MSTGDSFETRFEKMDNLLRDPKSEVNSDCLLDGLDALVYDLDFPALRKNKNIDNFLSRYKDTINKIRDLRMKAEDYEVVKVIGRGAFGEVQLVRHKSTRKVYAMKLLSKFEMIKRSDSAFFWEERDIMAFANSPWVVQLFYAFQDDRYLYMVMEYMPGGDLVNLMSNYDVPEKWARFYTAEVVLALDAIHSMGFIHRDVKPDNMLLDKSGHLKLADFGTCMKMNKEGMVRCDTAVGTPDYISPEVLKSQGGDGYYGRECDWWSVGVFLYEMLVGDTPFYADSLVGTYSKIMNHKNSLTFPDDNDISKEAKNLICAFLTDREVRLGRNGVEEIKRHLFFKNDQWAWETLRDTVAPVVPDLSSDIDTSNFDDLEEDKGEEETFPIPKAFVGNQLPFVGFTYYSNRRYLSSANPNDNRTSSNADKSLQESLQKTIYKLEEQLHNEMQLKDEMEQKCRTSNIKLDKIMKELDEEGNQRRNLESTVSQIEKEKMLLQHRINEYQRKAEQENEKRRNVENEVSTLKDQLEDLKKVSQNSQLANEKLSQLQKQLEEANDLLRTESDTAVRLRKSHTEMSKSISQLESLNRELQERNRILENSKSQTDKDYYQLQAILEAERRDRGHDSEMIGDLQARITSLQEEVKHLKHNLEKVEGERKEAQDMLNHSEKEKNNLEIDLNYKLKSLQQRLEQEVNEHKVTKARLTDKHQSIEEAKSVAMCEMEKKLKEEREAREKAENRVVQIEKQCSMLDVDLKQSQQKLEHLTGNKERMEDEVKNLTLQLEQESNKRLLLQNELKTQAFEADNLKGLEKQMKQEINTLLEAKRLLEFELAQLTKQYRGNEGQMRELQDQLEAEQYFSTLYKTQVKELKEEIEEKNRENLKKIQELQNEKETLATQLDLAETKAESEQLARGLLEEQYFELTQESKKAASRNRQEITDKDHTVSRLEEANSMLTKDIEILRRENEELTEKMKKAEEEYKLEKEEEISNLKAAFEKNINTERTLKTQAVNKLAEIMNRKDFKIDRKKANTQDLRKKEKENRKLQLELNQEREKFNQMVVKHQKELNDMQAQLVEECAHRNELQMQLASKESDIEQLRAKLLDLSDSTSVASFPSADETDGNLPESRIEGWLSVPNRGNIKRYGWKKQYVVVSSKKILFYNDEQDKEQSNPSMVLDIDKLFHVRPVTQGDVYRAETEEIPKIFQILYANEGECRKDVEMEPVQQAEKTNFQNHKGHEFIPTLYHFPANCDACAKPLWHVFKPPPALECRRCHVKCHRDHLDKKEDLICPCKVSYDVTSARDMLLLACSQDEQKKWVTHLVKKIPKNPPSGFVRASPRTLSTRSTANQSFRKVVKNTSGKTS

On to `Cc1c[nH]c2nccc(Oc3ccc(CC(CN)C(=O)N4CCN(C5CC5)CC4)cc3)c12` (centres unmarked) [Example 2, 3-amino-1-(4-cyclopropylpiperazin-1-yl)-2-(4-((3-methyl-1H-pyrrolo[2,3-b]pyridin-4-yl)oxy)benzyl)propan-1-one], for which the Ki on Rho kinase 1 (ROCK1) and at Rho kinase 2 (ROCK2) was less than 3 nM in each case.

Turning to `Cc1c[nH]c2nccc(Oc3ccc(CC(CN)C(=O)NC4CCN(C)CC4)cc3F)c12` (centres unmarked) [Example 3, 3-amino-2-(3-fluoro-4-((3-methyl-1H-pyrrolo[2,3-b]pyridin-4-yl)oxy)benzyl)-N-(1-methylpiperidin-4-yl)propanamide], the inhibition constant Ki at Rho kinase 1 (ROCK1) and on Rho kinase 2 (ROCK2) was less than 3 nM each time.

Regarding `Cc1c[nH]c2nccc(Oc3ccc(CC(CN)C(=O)N4C[C@@H]5C[C@H]4CN5C)cc3F)c12` (stereo partly drawn) [Example 4, 3-amino-2-(3-fluoro-4-((3-methyl-1H-pyrrolo[2,3-b]pyridin-4-yl)oxy)benzyl)-1-((1S,4S)-5-methyl-2,5-diazabicyclo[2.2.1]heptan-2-yl)propan-1-one], the Ki at Rho kinase 1 (ROCK1) and at Rho kinase 2 (ROCK2) was less than 3 nM in each case.

With `Cc1c[nH]c2nccc(Oc3ccc(CC(CN)C(=O)N4CCN(Cc5ccccn5)CC4)cc3F)c12` (centres unmarked) [Example 5, 3-amino-2-(3-fluoro-4-((3-methyl-1H-pyrrolo[2,3-b]pyridin-4-yl)oxy)benzyl)-1-(4-(pyridin-2-ylmethyl)piperazin-1-yl)propan-1-one], the Ki on Rho kinase 1 (ROCK1) and at Rho kinase 2 (ROCK2) was less than 3 nM each time.

For the compound `Cc1cc2c(Oc3ccc(CC(CN)C(=O)N4CCN(Cc5ccccc5)CC4)cc3)ccnc2[nH]1` (centres unmarked) [Example 6, 3-amino-1-(4-benzylpiperazin-1-yl)-2-(4-((2-methyl-1H-pyrrolo[2,3-b]pyridin-4-yl)oxy)benzyl)propan-1-one], the Ki at Rho kinase 1 (ROCK1) and on Rho kinase 2 (ROCK2) was more than 30 nM each time.

As to `Cc1c[nH]c2nccc(Oc3ccc(C(N)CC(=O)N4CCN(Cc5ccccc5)CC4)cc3)c12` (centres unmarked) [Example 7, 3-amino-1-(4-benzylpiperazin-1-yl)-3-(4-((3-methyl-1H-pyrrolo[2,3-b]pyridin-4-yl)oxy)phenyl)propan-1-one], the Ki on Rho kinase 1 (ROCK1) and on Rho kinase 2 (ROCK2) was less than 3 nM in each case.

Take `NC(C(=O)NC1CCCCC1)c1ccc(Oc2ccnc3[nH]ccc23)cc1` (centres unmarked) [Example 8, 2-(4-((1H-pyrrolo[2,3-b]pyridin-4-yl)oxy)phenyl)-2-amino-N-cyclohexylacetamide]: the inhibitory constant (Ki) on Rho kinase 1 (ROCK1) and at Rho kinase 2 (ROCK2) was more than 30 nM each time.

As for `NC(C(=O)Nc1ccccc1)c1ccc(Oc2ccnc3[nH]ccc23)cc1` (centres unmarked) [Example 9, 2-(4-((1H-pyrrolo[2,3-b]pyridin-4-yl)oxy)phenyl)-2-amino-N-phenylacetamide], the inhibition constant Ki on Rho kinase 1 (ROCK1) and at Rho kinase 2 (ROCK2) was more than 30 nM each time.

For `NC(C(=O)Nc1ccc(C(F)(F)F)cc1)c1ccc(Oc2ccnc3[nH]ccc23)cc1` (centres unmarked) [Example 10, 2-(4-((1H-pyrrolo[2,3-b]pyridin-4-yl)oxy)phenyl)-2-amino-N-(4-(trifluoromethyl)phenyl)acetamide], the inhibitory constant (Ki) on Rho kinase 1 (ROCK1) and on Rho kinase 2 (ROCK2) was more than 30 nM each time.

On to `CN1CCN(C(=O)C(N)c2ccc(Oc3ccnc4[nH]ccc34)cc2)CC1` (centres unmarked) [Example 11, 2-(4-((1H-pyrrolo[2,3-b]pyridin-4-yl)oxy)phenyl)-2-amino-1-(4-methylpiperazin-1-yl)ethanone], for which the Ki on Rho kinase 1 (ROCK1) and on Rho kinase 2 (ROCK2) was more than 30 nM each time.

`CN(C)C(=O)C(N)c1ccc(Oc2ccnc3[nH]ccc23)cc1` (centres unmarked) [Example 12, 2-(4-((1H-pyrrolo[2,3-b]pyridin-4-yl)oxy)phenyl)-2-amino-N,N-dimethylacetamide]: the inhibitory constant (Ki) on Rho kinase 1 (ROCK1) and at Rho kinase 2 (ROCK2) was more than 30 nM each time.

On to `NC(C(=O)NC1CCOCC1)c1ccc(Oc2ccnc3[nH]ccc23)cc1` (centres unmarked) [Example 13, 2-(4-((1H-pyrrolo[2,3-b]pyridin-4-yl)oxy)phenyl)-2-amino-N-(tetrahydro-2H-pyran-4-yl)acetamide], for which the Ki at Rho kinase 1 (ROCK1) and on Rho kinase 2 (ROCK2) was more than 30 nM each time.

As for `CN1CCC(NC(=O)C(N)c2ccc(Oc3ccnc4[nH]ccc34)cc2)CC1` (centres unmarked) [Example 14, 2-(4-((1H-pyrrolo[2,3-b]pyridin-4-yl)oxy)phenyl)-2-amino-N-(1-methylpiperidin-4-yl)acetamide], the inhibition constant (Ki) at Rho kinase 1 (ROCK1) and at Rho kinase 2 (ROCK2) was more than 30 nM each time.

For the compound `Cc1c[nH]c2nccc(Oc3ccc(C(CN)CC(=O)N4CCN(Cc5ccccc5)CC4)cc3)c12` (centres unmarked) [Example 15, 4-amino-1-(4-benzylpiperazin-1-yl)-3-(4-((3-methyl-1H-pyrrolo[2,3-b]pyridin-4-yl)oxy)phenyl)butan-1-one], the Ki at Rho kinase 1 (ROCK1) and on Rho kinase 2 (ROCK2) was less than 3 nM each time.

For the compound `Cc1c[nH]c2nccc(Oc3ccc(C(CN)CC(=O)N4CCN(C5CC5)CC4)cc3)c12` (centres unmarked) [Example 16, 4-amino-1-(4-cyclopropylpiperazin-1-yl)-3-(4-((3-methyl-1H-pyrrolo[2,3-b]pyridin-4-yl)oxy)phenyl)butan-1-one], the Ki at Rho kinase 1 (ROCK1) and at Rho kinase 2 (ROCK2) was 3 to 30 nM in each case.

Consider `Cc1c[nH]c2nccc(Oc3ccc(CC(CN)C(=O)NC4CCCCC4)cc3F)c12` (centres unmarked) [Example 28, 3-amino-N-cyclohexyl-2-(3-fluoro-4-((3-methyl-1H-pyrrolo[2,3-b]pyridin-4-yl)oxy)benzyl)propanamide], for which the inhibitory constant (Ki) at Rho kinase 1 (ROCK1) and on Rho kinase 2 (ROCK2) was less than 3 nM in each case.

`Cc1c[nH]c2nccc(Oc3ccc(CC(CN)C(=O)N4CCN(Cc5ccccc5)CC4)cc3F)c12` (centres unmarked) [Example 29, 3-amino-1-(4-benzylpiperazin-1-yl)-2-(3-fluoro-4-((3-methyl-1H-pyrrolo[2,3-b]pyridin-4-yl)oxy)benzyl)propan-1-one]: the inhibition constant (Ki) on Rho kinase 1 (ROCK1) and at Rho kinase 2 (ROCK2) was less than 3 nM each time.

For the compound `Cc1c[nH]c2nccc(Oc3ccc(CC(CN)C(=O)N4CCN(Cc5ccccc5)CC4)cc3)c12` (centres unmarked) [Example 30, 3-amino-1-(4-benzylpiperazin-1-yl)-2-(4-((3-methyl-1H-pyrrolo[2,3-b]pyridin-4-yl)oxy)benzyl)propan-1-one], the inhibitory constant (Ki) on Rho kinase 1 (ROCK1) and on Rho kinase 2 (ROCK2) was less than 3 nM in each case.

As for `Cc1c[nH]c2nccc(Oc3ccc(CC(CN)C(=O)NC4CCCCC4)cc3)c12` (centres unmarked) [Example 31, 3-amino-N-cyclohexyl-2-(4-((3-methyl-1H-pyrrolo[2,3-b]pyridin-4-yl)oxy)benzyl)propanamide], the Ki on Rho kinase 1 (ROCK1) and on Rho kinase 2 (ROCK2) was less than 3 nM each time.

With `NCC(Cc1ccc(Oc2ccnc3[nH]ccc23)cc1)C(=O)N1CCN(Cc2ccccc2)CC1` (centres unmarked) [Example 32, 2-(4-((1H-pyrrolo[2,3-b]pyridin-4-yl)oxy)benzyl)-3-amino-1-(4-benzylpiperazin-1-yl)propan-1-one], the inhibition constant (Ki) at Rho kinase 1 (ROCK1) and on Rho kinase 2 (ROCK2) was less than 3 nM throughout.

As to `NCC(Cc1ccc(Oc2ccnc3[nH]ccc23)cc1)C(=O)NC1CCCCC1` (centres unmarked) [Example 33, 2-(4-((1H-pyrrolo[2,3-b]pyridin-4-yl)oxy)benzyl)-3-amino-N-cyclohexylpropanamide], the Ki at Rho kinase 1 (ROCK1) and on Rho kinase 2 (ROCK2) was 3 to 30 nM throughout.

Regarding `NCC(Cc1ccc(Oc2ccnc3[nH]ccc23)cc1)C(=O)NC1CCOCC1` (centres unmarked) [Example 34, 2-(4-((1H-pyrrolo[2,3-b]pyridin-4-yl)oxy)benzyl)-3-amino-N-(tetrahydro-2H-pyran-4-yl)propanamide], the Ki on Rho kinase 1 (ROCK1) and at Rho kinase 2 (ROCK2) was 3 to 30 nM each time.

Take `COCCCNC(=O)C(CN)Cc1ccc(Oc2ccnc3[nH]ccc23)cc1` (centres unmarked) [Example 35, 2-(4-((1H-pyrrolo[2,3-b]pyridin-4-yl)oxy)benzyl)-3-amino-N-(3-methoxypropyl)propanamide]: the Ki on Rho kinase 1 (ROCK1) and at Rho kinase 2 (ROCK2) was 3 to 30 nM each time.

On to `CNCC(Cc1ccc(Oc2ccnc3[nH]cc(C)c23)cc1)C(=O)N1CCN(Cc2ccccc2)CC1` (centres unmarked) [Example 36, 1-(4-benzylpiperazin-1-yl)-2-(4-((3-methyl-1H-pyrrolo[2,3-b]pyridin-4-yl)oxy)benzyl)-3-(methylamino)propan-1-one], for which the inhibition constant (Ki) on Rho kinase 1 (ROCK1) and on Rho kinase 2 (ROCK2) was less than 3 nM each time.

For `Cc1c[nH]c2nccc(Oc3ccc(CC(CN(C)C)C(=O)N4CCN(Cc5ccccc5)CC4)cc3)c12` (centres unmarked) [Example 37, 1-(4-benzylpiperazin-1-yl)-3-(dimethylamino)-2-(4-((3-methyl-1H-pyrrolo[2,3-b]pyridin-4-yl)oxy)benzyl)propan-1-one], the Ki at Rho kinase 1 (ROCK1) and at Rho kinase 2 (ROCK2) was less than 3 nM in each case.

For `Cc1c[nH]c2nccc(Oc3ccc(C4CC(=O)N(CCCN(C)C)CN4)cc3)c12` (centres unmarked) [Example 38, 3-(3-(dimethylamino)propyl)-6-(4-((3-methyl-1H-pyrrolo[2,3-b]pyridin-4-yl)oxy)phenyl)tetrahydropyrimidin-4(1H)-one], the Ki at Rho kinase 1 (ROCK1) and on Rho kinase 2 (ROCK2) was more than 30 nM in each case.

As for `COCCCN1CNC(c2ccc(Oc3ccnc4[nH]cc(C)c34)cc2)CC1=O` (centres unmarked) [Example 39, 3-(3-methoxypropyl)-6-(4-((3-methyl-1H-pyrrolo[2,3-b]pyridin-4-yl)oxy)phenyl)tetrahydropyrimidin-4(1H)-one], the inhibitory constant (Ki) at Rho kinase 1 (ROCK1) and at Rho kinase 2 (ROCK2) was more than 30 nM throughout.

As to `Cc1c[nH]c2nccc(Oc3ccc(C4CC(=O)N(CCc5ccncc5)CN4)cc3)c12` (centres unmarked) [Example 40, 6-(4-((3-methyl-1H-pyrrolo[2,3-b]pyridin-4-yl)oxy)phenyl)-3-(2-(pyridin-4-yl)ethyl)tetrahydropyrimidin-4(1H)-one], the Ki at Rho kinase 1 (ROCK1) and at Rho kinase 2 (ROCK2) was more than 30 nM each time.
